Laboratory results reported in PubChem BioAssay AID2060910 (Molecular Pharmacology Branch, DTP, NCI, 2025).

System: 242566-281-R-J2-PDC complex spheroid viability
Assay: Anticancer human tumor 242566-281-R-J2-PDC patient-derived pancreatic carcinoma cell line growth inhibition [RAS]
Conditions: for IC50: curve of first compound; for viability, T/C: stronger effect = lower value; active = viability on the fitted dose curve at most 10% of control; inactive = the rest
In short: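 Multi-cell-type spheroids: tumor cells plus HUVEC endothelial cells and mesenchymal stem cells. RAS-pathway inhibitors were combined with targeted agents, each dosed in half-log steps down from clinical Cmax, or from 10 microM when Cmax was unknown.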

[1] = second compound 0.000949 µM, first compound 0.00316 µM
[2] = second compound 0.000949 µM, first compound 0.01 µM
[3] = second compound 0.000949 µM, first compound 0.0316 µM
[4] = second compound 0.000949 µM, first compound 0.1 µM
[5] = second compound 0.000949 µM, first compound 0.316 µM
[6] = second compound 0.000949 µM, first compound 1 µM
[7] = second compound 0.003 µM, first compound 0.00316 µM
[8] = second compound 0.003 µM, first compound 0.01 µM
[9] = second compound 0.003 µM, first compound 0.0316 µM
[10] = second compound 0.003 µM, first compound 0.1 µM
[11] = second compound 0.003 µM, first compound 0.316 µM
[12] = second compound 0.003 µM, first compound 1 µM
[13] = second compound 0.00949 µM, first compound 0.00316 µM
[14] = second compound 0.00949 µM, first compound 0.01 µM
[15] = second compound 0.00949 µM, first compound 0.0316 µM
[16] = second compound 0.00949 µM, first compound 0.1 µM
[17] = second compound 0.00949 µM, first compound 0.316 µM
[18] = second compound 0.00949 µM, first compound 1 µM
[19] = second compound 0.03 µM, first compound 0.00316 µM
[20] = second compound 0.03 µM, first compound 0.01 µM
[21] = second compound 0.03 µM, first compound 0.0316 µM
[22] = second compound 0.03 µM, first compound 0.1 µM
[23] = second compound 0.03 µM, first compound 0.316 µM
[24] = second compound 0.03 µM, first compound 1 µM
[25] = second compound 0.0949 µM, first compound 0.00316 µM
[26] = second compound 0.0949 µM, first compound 0.01 µM
[27] = second compound 0.0949 µM, first compound 0.0316 µM
[28] = second compound 0.0949 µM, first compound 0.1 µM
[29] = second compound 0.0949 µM, first compound 0.316 µM
[30] = second compound 0.0949 µM, first compound 1 µM
[31] = second compound 0.3 µM, first compound 0.00316 µM
[32] = second compound 0.3 µM, first compound 0.01 µM
[33] = second compound 0.3 µM, first compound 0.0316 µM
[34] = second compound 0.3 µM, first compound 0.1 µM
[35] = second compound 0.3 µM, first compound 0.316 µM
[36] = second compound 0.3 µM, first compound 1 µM
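Note: spheroids exposed to compound for 7 days before readout.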
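Throughout, for viability, T/C: 100% = DMSO vehicle control wells.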

C=CC(=O)N1CCN(c2nc(OCC3CCCN3C)nc3c(F)c(-c4nc(N)cc(C)c4C(F)(F)F)c(Cl)cc23)C(C)C1 (stereo not drawn) + CCn1c(-c2cc(N3CCN(C)CC3)cnc2C(C)OC)c2c3cc(ccc31)-c1csc(n1)CC(NC(=O)C1CC1C)C(=O)N1CCCC(N1)C(=O)OCC(C)(C)C2
> 1000 nM: IC50 (second compound 0.000949 µM) | IC50 (second compound 0.003 µM)
< 3.16 nM: IC50 (second compound 0.00949 µM) | IC50 (second compound 0.03 µM) | IC50 (second compound 0.0949 µM) | IC50 (second compound 0.3 µM)
inactive: viability, T/C [1] 91.5% | viability, T/C [2] 90.3% | viability, T/C [3] 69.8% | viability, T/C [4] 96.7% | viability, T/C [5] 86.9% | viability, T/C [6] 59.6% | viability, T/C [7] 80.6% | viability, T/C [8] 62.2% | viability, T/C [9] 67.8% | viability, T/C [10] 70.5% | viability, T/C [11] 76.5% | viability, T/C [12] 51.7% | viability, T/C [13] 46.6% | viability, T/C [14] 39.8% | viability, T/C [15] 44.3% | viability, T/C [16] 47.3% | viability, T/C [17] 43.1% | viability, T/C [18] 41.3% | viability, T/C [19] 33.7% | viability, T/C [20] 32.1% | viability, T/C [21] 30.3% | viability, T/C [22] 30.5% | viability, T/C [23] 23.8% | viability, T/C [24] 26.9% | viability, T/C [25] 25.1% | viability, T/C [26] 22.6% | viability, T/C [27] 23.1% | viability, T/C [28] 24.5% | viability, T/C [29] 20.1% | viability, T/C [30] 26% | viability, T/C [31] 21.6% | viability, T/C [32] 20.6% | viability, T/C [33] 21.7% | viability, T/C [34] 20.6% | viability, T/C [35] 19.8% | viability, T/C [36] 20.2%

CC1(C)CCC(Nc2ncc(C(F)(F)F)c(-c3c[nH]c4c(P(C)(C)=O)c(C#N)ccc34)n2)CN1 (stereo not drawn) + CCn1c(-c2cc(N3CCN(C)CC3)cnc2C(C)OC)c2c3cc(ccc31)-c1csc(n1)CC(NC(=O)C1CC1C)C(=O)N1CCCC(N1)C(=O)OCC(C)(C)C2
< 0.949 nM: IC50 (second compound 0.00949 µM) | IC50 (second compound 0.03 µM) | IC50 (second compound 0.0949 µM) | IC50 (second compound 0.3 µM)
inactive: viability, T/C (second compound 0.000949 µM, first compound 0.000949 µM) 101% | viability, T/C (second compound 0.000949 µM, first compound 0.003 µM) 98% | viability, T/C (second compound 0.000949 µM, first compound 0.00949 µM) 73.5% | viability, T/C (second compound 0.000949 µM, first compound 0.03 µM) 88% | viability, T/C (second compound 0.000949 µM, first compound 0.0949 µM) 85.3% | viability, T/C (second compound 0.000949 µM, first compound 0.3 µM) 61.3% | viability, T/C (second compound 0.003 µM, first compound 0.000949 µM) 81.6% | viability, T/C (second compound 0.003 µM, first compound 0.003 µM) 69.6% | viability, T/C (second compound 0.003 µM, first compound 0.00949 µM) 63.8% | viability, T/C (second compound 0.003 µM, first compound 0.03 µM) 67.8% | viability, T/C (second compound 0.003 µM, first compound 0.0949 µM) 68.3% | viability, T/C (second compound 0.003 µM, first compound 0.3 µM) 48.8% | viability, T/C (second compound 0.00949 µM, first compound 0.000949 µM) 49.6% | viability, T/C (second compound 0.00949 µM, first compound 0.003 µM) 39.9% | viability, T/C (second compound 0.00949 µM, first compound 0.00949 µM) 45.5% | viability, T/C (second compound 0.00949 µM, first compound 0.03 µM) 39.3% | viability, T/C (second compound 0.00949 µM, first compound 0.0949 µM) 35.5% | viability, T/C (second compound 0.00949 µM, first compound 0.3 µM) 36% | viability, T/C (second compound 0.03 µM, first compound 0.000949 µM) 30.7% | viability, T/C (second compound 0.03 µM, first compound 0.003 µM) 32.9% | viability, T/C (second compound 0.03 µM, first compound 0.00949 µM) 30.2% | viability, T/C (second compound 0.03 µM, first compound 0.03 µM) 27.8% | viability, T/C (second compound 0.03 µM, first compound 0.0949 µM) 19.6% | viability, T/C (second compound 0.03 µM, first compound 0.3 µM) 27.2% | viability, T/C (second compound 0.0949 µM, first compound 0.000949 µM) 22.5% | viability, T/C (second compound 0.0949 µM, first compound 0.003 µM) 24.8% | viability, T/C (second compound 0.0949 µM, first compound 0.00949 µM) 21.6% | viability, T/C (second compound 0.0949 µM, first compound 0.03 µM) 21.6% | viability, T/C (second compound 0.0949 µM, first compound 0.0949 µM) 19.4% | viability, T/C (second compound 0.0949 µM, first compound 0.3 µM) 23.6% | viability, T/C (second compound 0.3 µM, first compound 0.000949 µM) 21.6% | viability, T/C (second compound 0.3 µM, first compound 0.003 µM) 19.4% | viability, T/C (second compound 0.3 µM, first compound 0.00949 µM) 21.3% | viability, T/C (second compound 0.3 µM, first compound 0.03 µM) 17.5% | viability, T/C (second compound 0.3 µM, first compound 0.0949 µM) 18.6% | viability, T/C (second compound 0.3 µM, first compound 0.3 µM) 18.3%
> 300 nM: IC50 (second compound 0.000949 µM) | IC50 (second compound 0.003 µM)

C=CC(=O)Nc1cc(Nc2nccc(-c3cn(C)c4ccccc34)n2)c(OC)cc1N(C)CCN(C)C + CCn1c(-c2cccnc2C(C)OC)c2c3cc(ccc31)N1CCOC(CC(NC(=O)C(C(C)C)N(C)C(=O)C3(F)CCN(C(=O)C#CC(C)(C)N(C)C)CC3)C(=O)N3CCCC(N3)C(=O)OCC(C)(C)C2)C1
inactive: viability, T/C [1] 87.8% | viability, T/C [2] 107% | viability, T/C [3] 82.5% | viability, T/C [4] 91% | viability, T/C [5] 86.7% | viability, T/C [6] 50.3% | viability, T/C [7] 131% | viability, T/C [8] 95% | viability, T/C [9] 92.2% | viability, T/C [10] 84.3% | viability, T/C [11] 89.8% | viability, T/C [12] 47.2% | viability, T/C [13] 119% | viability, T/C [14] 95.8% | viability, T/C [15] 82.8% | viability, T/C [16] 102% | viability, T/C [17] 77.4% | viability, T/C [18] 51.1% | viability, T/C [19] 97.6% | viability, T/C [20] 95.3% | viability, T/C [21] 99.1% | viability, T/C [22] 93.6% | viability, T/C [23] 66% | viability, T/C [24] 52.2% | viability, T/C [25] 98.5% | viability, T/C [26] 98.7% | viability, T/C [27] 99.2% | viability, T/C [28] 83.5% | viability, T/C [29] 61.3% | viability, T/C [30] 49.5% | viability, T/C [31] 94.9% | viability, T/C [32] 86.9% | viability, T/C [33] 78% | viability, T/C [34] 70.4% | viability, T/C [35] 56.5% | viability, T/C [36] 47.8%
983 nM: IC50 (second compound 0.0949 µM)
> 1000 nM: IC50 (second compound 0.000949 µM) | IC50 (second compound 0.003 µM) | IC50 (second compound 0.00949 µM) | IC50 (second compound 0.03 µM)
754 nM: IC50 (second compound 0.3 µM)

O=C(c1ccc(F)c(F)c1Nc1ccc(I)cc1F)N1CC(O)([C@@H]2CCCCN2)C1 + CCn1c(-c2cccnc2C(C)OC)c2c3cc(ccc31)N1CCOC(CC(NC(=O)C(C(C)C)N(C)C(=O)C3(F)CCN(C(=O)C#CC(C)(C)N(C)C)CC3)C(=O)N3CCCC(N3)C(=O)OCC(C)(C)C2)C1
123 nM: IC50 (second compound 0.003 µM)
inactive: viability, T/C [1] 92.3% | viability, T/C [2] 90.8% | viability, T/C [3] 51.1% | viability, T/C [4] 53.2% | viability, T/C [5] 38.9% | viability, T/C [6] 19.5% | viability, T/C [7] 87.2% | viability, T/C [8] 77.5% | viability, T/C [9] 65.7% | viability, T/C [10] 52.9% | viability, T/C [11] 38.7% | viability, T/C [12] 18.9% | viability, T/C [13] 101% | viability, T/C [14] 69% | viability, T/C [15] 78.5% | viability, T/C [16] 51.1% | viability, T/C [17] 33.7% | viability, T/C [18] 21% | viability, T/C [19] 93.3% | viability, T/C [20] 89.4% | viability, T/C [21] 76.9% | viability, T/C [22] 54.9% | viability, T/C [23] 29.3% | viability, T/C [24] 22.4% | viability, T/C [25] 97.9% | viability, T/C [26] 88.1% | viability, T/C [27] 68% | viability, T/C [28] 52% | viability, T/C [29] 26.5% | viability, T/C [30] 22.1% | viability, T/C [31] 87% | viability, T/C [32] 75.3% | viability, T/C [33] 60.6% | viability, T/C [34] 36.9% | viability, T/C [35] 24.2% | viability, T/C [36] 15.8%
52.1 nM: IC50 (second compound 0.3 µM)
96.3 nM: IC50 (second compound 0.000949 µM)
116 nM: IC50 (second compound 0.00949 µM)
90.7 nM: IC50 (second compound 0.0949 µM)
119 nM: IC50 (second compound 0.03 µM)
